Measured values reported in PubChem BioAssay AID248 (DTP/NCI, 2004).
Where “and” joins values, the source holds several entries; their conditions need not be identical. Equal values may be shown once. Inconclusive results and toxic doses are left out. No stated cut-off is given here; in the data, active means T/C of 150% or more; inactive means T/C below 125%.

Tested on: L1210 leukemia ip in BDF1 mice, survival T/C
Test: NCI In Vivo Anticancer Drug Screen. Data for tumor model L1210 Leukemia (intraperitoneal) in B6D2F1 (BDF1) mice
Conditions: endpoint: mean survival time, higher = longer survival
Outline: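 Antitumor effect is assessed in tumor-bearing animals. Survival in the compound arm is compared with a vehicle-dosed control arm and expressed as their quotient.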

[1] = dose: 100.0 mg/kg/injection, schedule: Q04DX003 (ip), vehicle: saline
[2] = dose: 100.0 mg/kg/injection, schedule: Q01DX001 (ip), vehicle: saline
[3] = dose: 200.0 mg/kg/injection, schedule: Q01DX001 (ip), vehicle: saline
[4] = dose: 400.0 mg/kg/injection, schedule: Q01DX001 (ip), vehicle: saline
[5] = dose: 100.0 mg/kg/injection, schedule: Q04DX002 (ip), vehicle: Klucel (hydroxypropylcellulose) (HPC)
[6] = dose: 200.0 mg/kg/injection, schedule: Q04DX002 (ip), vehicle: Klucel (hydroxypropylcellulose) (HPC)
[7] = dose: 400.0 mg/kg/injection, schedule: Q04DX002 (ip), vehicle: Klucel (hydroxypropylcellulose) (HPC)
[8] = dose: 100.0 mg/kg/injection, schedule: Q01DX001 (ip), vehicle: saline with Tween-80
[9] = dose: 200.0 mg/kg/injection, schedule: Q01DX001 (ip), vehicle: saline with Tween-80
[10] = dose: 400.0 mg/kg/injection, schedule: Q01DX001 (ip), vehicle: saline with Tween-80
[11] = dose: 100.0 mg/kg/injection, schedule: Q01DX009 (ip), vehicle: saline
[12] = dose: 100.0 mg/kg/injection, schedule: Q04DX002 (ip), vehicle: saline with Tween-80
[13] = dose: 200.0 mg/kg/injection, schedule: Q04DX002 (ip), vehicle: saline with Tween-80
[14] = dose: 100.0 mg/kg/injection, schedule: Q01DX009 (ip), vehicle: Klucel (hydroxypropylcellulose) (HPC)
[15] = dose: 200.0 mg/kg/injection, schedule: Q01DX009 (ip), vehicle: Klucel (hydroxypropylcellulose) (HPC)
[16] = dose: 100.0 mg/kg/injection, schedule: Q04DX003 (ip), vehicle: saline with Tween-80
[17] = dose: 200.0 mg/kg/injection, schedule: Q04DX003 (ip), vehicle: saline with Tween-80
[18] = dose: 400.0 mg/kg/injection, schedule: Q04DX003 (ip), vehicle: saline with Tween-80

Measured: T/C

CC(c1ccccc1)n1cnc2c(=O)[nH]cnc21 (centres undefined)
inactive: dose: 50.0 mg/kg/injection, schedule: Q01DX001 (ip), vehicle: carboxymethylcellulose (CMC) 106 % of control | dose: 100.0 mg/kg/injection, schedule: Q01DX001 (ip), vehicle: carboxymethylcellulose (CMC) 101 % of control | dose: 200.0 mg/kg/injection, schedule: Q01DX001 (ip), vehicle: carboxymethylcellulose (CMC) 101 % of control | dose: 400.0 mg/kg/injection, schedule: Q01DX001 (ip), vehicle: carboxymethylcellulose (CMC) 95 % of control

CCOc1ccc(-n2c(O)c(N=Nc3ccc(Cl)cc3)c(=O)n(-c3ccc(OC)cc3)c2=S)cc1
inactive: dose: 100.0 mg/kg/injection, schedule: Q01DX001 (ip), vehicle: Klucel (hydroxypropylcellulose) (HPC) 96 % of control | dose: 200.0 mg/kg/injection, schedule: Q01DX001 (ip), vehicle: Klucel (hydroxypropylcellulose) (HPC) 98 % of control | dose: 400.0 mg/kg/injection, schedule: Q01DX001 (ip), vehicle: Klucel (hydroxypropylcellulose) (HPC) 96 % of control

O=C1NCCNC1=O
inactive: [1] 101 % of control | dose: 200.0 mg/kg/injection, schedule: Q04DX003 (ip), vehicle: saline 100 % of control | dose: 400.0 mg/kg/injection, schedule: Q04DX003 (ip), vehicle: saline 105 % of control

C1CC23CSCC12CSC3 (centres undefined)
inactive: [2] 103 % of control | [3] 111 % of control | [4] 108 % of control

Cc1c(C(C)(C)C)cc(CC(C)C)c(O)c1-c1c(C)c(CC(C)C)cc(C(C)(C)C)c1O
inactive: [5] 98 % of control | [6] 91 % of control | [7] 94 % of control

NC(CNC(=O)Oc1ccccc1)C(=O)O (centres undefined)
inactive: [8] 95 % of control | [9] 103 % of control | [10] 92 % of control

CC1(C)CCC2CC(=O)OC2(C)C1 (centres undefined)
inactive: [2] 109 % of control | [11] 100 % of control | [3] 95 % of control | dose: 200.0 mg/kg/injection, schedule: Q01DX009 (ip), vehicle: saline 94 % of control | [4] 92 % of control | dose: 400.0 mg/kg/injection, schedule: Q01DX009 (ip), vehicle: saline 98 % of control

CCN(CC)c1ccc(NCN2C(=O)c3ccccc3C2=O)c(C)c1
inactive: [12] 97 % of control | [13] 111 % of control

CCN=C(c1ccc(NC(=O)c2ccc(C(=O)Nc3ccc(C(=NCC)N(CC)C(=O)NCCCl)cc3)cc2)cc1)N(CC)C(=O)NCCCl
inactive: dose: 3.75 mg/kg/injection, schedule: Q01DX015 (ip), vehicle: methylcellulose (MC) 107 % of control | dose: 7.5 mg/kg/injection, schedule: Q01DX015 (ip), vehicle: methylcellulose (MC) 113 % of control

O=C(O)c1ccccc1C1C=CCCC1 (centres undefined)
inactive: [12] 101 % of control | [13] 101 % of control | dose: 400.0 mg/kg/injection, schedule: Q04DX002 (ip), vehicle: saline with Tween-80 104 % of control

OC(c1ccccc1)c1ccccc1 (tested in a mixture with another compound)
inactive: dose: 2.5 mg/kg/injection, schedule: Q01DX009 (ip), vehicle: acetone 107 % of control | dose: 5.0 mg/kg/injection, schedule: Q01DX009 (ip), vehicle: acetone 105 % of control | dose: 10.0 mg/kg/injection, schedule: Q01DX001 (ip), vehicle: saline 93 % of control | dose: 10.0 mg/kg/injection, schedule: Q01DX009 (ip), vehicle: acetone 98 % of control | dose: 20.0 mg/kg/injection, schedule: Q01DX001 (ip), vehicle: saline 88 % of control

CN1C2CCC1CC(OC(=O)C(CO)c1ccccc1)C2 (centres undefined)
inactive: dose: 31.25 mg/kg/injection, schedule: Q01DX Z (ip), vehicle: saline 100 % of control | dose: 62.5 mg/kg/injection, schedule: Q01DX Z (ip), vehicle: saline 102 % of control | dose: 125.0 mg/kg/injection, schedule: Q01DX Z (ip), vehicle: saline 98 % of control

O=C(COc1ccccc1)Nc1ccc(Br)cc1
inactive: [5] 103 % of control | [6] 103 % of control | [7] 95 % of control

CC(C)CCCC(C)C1CCC2C3CCC(CCO)C(C)(CCO)C3CCC12C (centres undefined)
inactive: [8] 97 % of control | [9] 92 % of control | [10] 94 % of control

CCOC(=O)C1C(=O)C(C(C(=O)OC2CC(C)CCC2C(C)C)N(CCCl)CCCl)C(=O)C(C(=O)OCC)C1c1ccc(O)cc1 (centres undefined) (tested in a mixture with another compound)
inactive: dose: 50.0 mg/kg/injection, schedule: Q01DX009 (ip), vehicle: Klucel (hydroxypropylcellulose) (HPC) 93 % of control | [14] 109 % of control | [15] 111 % of control

COc1ccc(C(=O)N/N=C/c2ccccc2Cl)cc1
inactive: [14] 106 % of control | [15] 97 % of control | dose: 400.0 mg/kg/injection, schedule: Q01DX009 (ip), vehicle: Klucel (hydroxypropylcellulose) (HPC) 102 % of control

C[CH2][Pb]([CH2]C)([CH2]C)[O][As](=O)(O)c1ccc(N)cc1
inactive: dose: 0.75 mg/kg/injection, schedule: Q01DX009 (ip), vehicle: Klucel (hydroxypropylcellulose) (HPC) 98 % of control | dose: 1.5 mg/kg/injection, schedule: Q01DX009 (ip), vehicle: Klucel (hydroxypropylcellulose) (HPC) 102 % of control | dose: 1.5 mg/kg/injection, schedule: Q04DX003 (ip), vehicle: Klucel (hydroxypropylcellulose) (HPC) 96 % of control | dose: 3.0 mg/kg/injection, schedule: Q01DX009 (ip), vehicle: Klucel (hydroxypropylcellulose) (HPC) 96 % of control and 102 % of control | dose: 3.0 mg/kg/injection, schedule: Q04DX003 (ip), vehicle: Klucel (hydroxypropylcellulose) (HPC) 100 % of control | dose: 6.0 mg/kg/injection, schedule: Q04DX003 (ip), vehicle: Klucel (hydroxypropylcellulose) (HPC) 98 % of control

[Cl][Pd][Cl].[NH-]C1CCCCC1.[NH-]C1CCCCC1
inactive: dose: 50.0 mg/kg/injection, schedule: Q04DX002 (ip), vehicle: Klucel (hydroxypropylcellulose) (HPC) 94 % of control | [5] 102 % of control | [6] 87 % of control

O=C1c2ccccc2CC1(Br)C(Br)c1ccccc1 (centres undefined)
inactive: dose: 100.0 mg/kg/injection, schedule: Q01DX009 (ip), vehicle: saline sonified 99 % of control | dose: 100.0 mg/kg/injection, schedule: Q01DX009 (ip), vehicle: saline with Tween-80 96 % of control | dose: 100.0 mg/kg/injection, schedule: Q04DX003 (ip), vehicle: Klucel (hydroxypropylcellulose) (HPC) 104 % of control | [16] 107 % of control | dose: 200.0 mg/kg/injection, schedule: Q01DX009 (ip), vehicle: saline sonified 95 % of control | dose: 200.0 mg/kg/injection, schedule: Q01DX009 (ip), vehicle: saline with Tween-80 91 % of control | dose: 200.0 mg/kg/injection, schedule: Q04DX003 (ip), vehicle: Klucel (hydroxypropylcellulose) (HPC) 101 % of control | [17] 103 % of control | dose: 400.0 mg/kg/injection, schedule: Q01DX009 (ip), vehicle: saline sonified 94 % of control | dose: 400.0 mg/kg/injection, schedule: Q01DX009 (ip), vehicle: saline with Tween-80 89 % of control | dose: 400.0 mg/kg/injection, schedule: Q04DX003 (ip), vehicle: Klucel (hydroxypropylcellulose) (HPC) 98 % of control | [18] 104 % of control

CC1CCc2nc3ccccc3nc21 (centres undefined)
inactive: [2] 91 % of control | [3] 97 % of control | [4] 91 % of control

CCOC(=O)/C(C#N)=N\O
inactive: dose: 25.0 mg/kg/injection, schedule: Q04DX003 (ip), vehicle: saline 98 % of control | dose: 50.0 mg/kg/injection, schedule: Q01DX009 (ip), vehicle: saline 111 % of control | dose: 50.0 mg/kg/injection, schedule: Q04DX003 (ip), vehicle: saline 111 % of control | [11] 90 % of control | [1] 104 % of control and 88 % of control

COC(=O)CNC(=O)CCNC(=O)OCc1ccccc1
inactive: [16] 98 % of control | [17] 97 % of control | [18] 98 % of control
